# Source: patent publication US20160115540A1, “PRODRUGS AND DRUGS” (Biogen MA Inc., priority 2013, published 2016)
# Where a name gives a salt, the structure may show the parent alone.
# Test system: striatum
# Experiment: Transcriptional profiling on Affymetrix GeneChips, single dose, naïve mice: striatum
# Assay type: in vivo, C57BL/6 mice
# Conditions: for Number of differentially expressed genes identified: Striatum: Naïve, Single Dose; for Aox1 (1419435_PM_at) differential expression: 7 hr; for differentially expressed genes: 100DMF-vs-100MMF
# Method: Treated mice were sacrificed at 2, 7, or 12 hours. Tissues (liver, spleen, kidney, jejunum, cortex, hippocampus, striatum and whole blood) were collected and analyzed by transcriptional profiling on mouse Affymetrix GeneChips.
# Tissues (liver, spleen, kidney, jejunum, cortex, hippocampus, striatum and whole blood) were collected and analyzed by transcriptional profiling on mouse Affymetrix GeneChips.
# Animals were exposed to CO2 and whole blood collected via cardiac puncture. Two 100 μl aliquots of whole blood were collected in 1.5 mL microcentrifuge tubes and snap frozen in liquid nitrogen. Peripheral (liver, spleen, kidney and jejunum) and CNS brain (cerebellum, hippocampus, striatum and cortex) tissues were harvested and snap frozen in liquid nitrogen, with special care taken to collect tissues of similar size and from the same location. All samples were stored at −80° C. until RNA extraction was conducted.
# For RNA preparation, frozen tissues were placed in 2 mL RNAse-free 96-well blocks with 1.5 mL QIAzol Lysis Reagent (QIAgen) and a 3.2 mm stainless steel bead (BioSpec Products, Bartlesville, Okla.). Tissues were disrupted for four cycles of 45 seconds in a Mini-Beadbeater (Biospec Products). RNA was extracted in chloroform and the aqueous phase was mixed with an equal volume of 70% ethanol. Extracted RNA was applied to RNeasy 96 plates and purified by the spin method according to the manufacturer's protocol (RNeasy 96 Universal Tissue Protocol, QIAgen, Hilden Germany).
# Automated sample amplifications and biotin labelings were carried out using the NuGEN Ovation RNA Amplification system V2 (Cat #3100), Ovation WB reagent (Cat #1300) and Encore Biotin module (Cat #4200) (NuGEN Technologies, Inc, San Carlos, Calif.) according to manufacturer's recommendations using an Arrayplex automated liquid handler (Beckman Coulter, Indianapolis, Ind.). Two micrograms of biotin labeled sscDNA probe were hybridized to Affymetrix GeneChip Affymetrix HT_MG-430_PM plate arrays with modified conditions as described in Allaire et al. Washing and staining of the hybridized arrays were completed as described in the GeneChip Expression analysis technical manual for HT plate arrays using the Genechip® Array Station (Affymetrix, Santa Clara, Calif.) with modifications as described in Allaire et al. The processed GeneChip® plate arrays were scanned using GeneTitan scanner (Affymetrix, Santa Clara, Calif.).
# Affymetrix scans were subject to quality control (QC) measures. These tests included a visual inspection of the distribution of raw signal intensities and an assessment of RNA degradation, relative log expression (RLE), and normalized unsealed standard error (NUSE). All sample scans that passed these QC metrics were included in the analysis.
# All CEL files were subjected to GC-content-based Robust Multi-array Average (GCRMA) normalization (version 2.20.0) (Irizarry R A, et al. Nucleic Acids Res 2003; 31:e15; Li C, et al. Genome Biol 2001; 2:[…]0032). Expression levels were log (base 2) transformed.
# All calculations and analyses were carried out using R (version 2.11.1) and Bioconductor computational tools (Gentleman R. Springer Science+Business Media 2005).
# [1] = 100 mpk, vs Vehicle, 2 h after last dosing
# [2] = 100 mpk, vs Vehicle, 7 h after last dosing
# [3] = 100 mpk, vs Vehicle, 12 h after last dosing
# [4] = striatum, 2 hr after single 100 mg/kg oral dose
# [5] = striatum, 12 hr after single 100 mg/kg oral dose
structure (smiles),measurement,setting,value
"COC(=O)/C=C/C(=O)OC [DMF, dimethyl fumarate]",Number of differentially expressed genes identified: Striatum,"100 mpk DMF-vs-100 mpk MMF, 2 h after last dosing",0
same,Number of differentially expressed genes identified: Striatum,"100 mpk DMF-vs-100 mpk MMF, 7 h after last dosing",0
same,Number of differentially expressed genes identified: Striatum,"100 mpk DMF-vs-100 mpk MMF, 12 h after last dosing",0
same,Number of differentially expressed genes identified: Striatum,[1],4
same,Number of differentially expressed genes identified: Striatum,[2],2
same,Number of differentially expressed genes identified: Striatum,[3],2
same,"Number of genes, DMF Only / MMF Only",Striatum,5
same,Gtpbp10 (1434030_PM_at) differential expression,"Striatum, 2 hr",−1.52
same,Kdm3b (1428320_PM_at) differential expression,"Striatum, 2 hr",−1.54
same,Mkln1 (1416734_PM_at) differential expression,"Striatum, 2 hr",−1.97
same,Ptprg (1456070_PM_at) differential expression,"Striatum, 2 hr",−1.54
same,Aox1 (1419435_PM_at) differential expression,Striatum,1.64
same,Nfia (1438236_PM_at) differential expression,"Striatum, 12 hr",−1.53
same,Zeb2 (1422748_PM_at) differential expression,"Striatum, 12 hr",−1.66
same,differentially expressed genes,"striatum, 2 h",None
same,differentially expressed genes,"striatum, 7 h",None
same,differentially expressed genes,"striatum, 12 h",None
same,FC Gtpbp10 (1434030_PM_at),"striatum, 100DMF-vs-Veh, 2 h",−1.52
same,FC Kdm3b (1428320_PM_at),"striatum, 100DMF-vs-Veh, 2 h",−1.54
same,FC Mkln1 (1416734_PM_at),"striatum, 100DMF-vs-Veh, 2 h",−1.97
same,FC probe 1444791_PM_at,"striatum, 100DMF-vs-Veh, 2 h",−1.60
same,FC Aox1 (1419435_PM_at),"striatum, 100DMF-vs-Veh, 7 h",1.64
same,FC probe 1443353_PM_at,"striatum, 100DMF-vs-Veh, 7 h",−1.83
same,FC Nfia (1438236_PM_at),"striatum, 100DMF-vs-Veh, 12 h",−1.53
same,FC Zeb2 (1422748_PM_at),"striatum, 100DMF-vs-Veh, 12 h",−1.66
"COC(=O)/C=C/C(=O)O [MMF, monomethyl fumarate]",Number of differentially expressed genes identified: Striatum,[1],6
same,Number of differentially expressed genes identified: Striatum,[2],1
same,Number of differentially expressed genes identified: Striatum,[3],7
same,"Number of genes, DMF Only / MMF Only",Striatum,12
same,Gna13 (1422556_PM_at) differential expression,"Striatum, 2 hr",−1.63
same,Golga3 (1449616_PM_s_at) differential expression,"Striatum, 2 hr",−1.63
same,Grin2a (1421616_PM_at) differential expression,"Striatum, 2 hr",−1.78
same,Kdm3b (1428320_PM_at) differential expression,"Striatum, 2 hr",−1.56
same,Lrrc41 (1427125_PM_s_at) differential expression,"Striatum, 2 hr",−1.54
same,Top2b (1448458_PM_at) differential expression,"Striatum, 2 hr",−1.56
same,Aox1 (1419435_PM_at) differential expression,Striatum,1.95
same,Adamts9 (1437785_PM_at) differential expression,"Striatum, 12 hr",−2.58
same,Galnt12 (1437760_PM_at) differential expression,"Striatum, 12 hr",1.50
same,Hrh3 (1448807_PM_at) differential expression,"Striatum, 12 hr",1.59
same,Itpkb (1435272_PM_at) differential expression,"Striatum, 12 hr",−1.56
same,Pvrl3 (1457257_PM_x_at) differential expression,"Striatum, 12 hr",−1.80
same,St18 (1455123_PM_at) differential expression,"Striatum, 12 hr",−1.69
same,Tmprss6 (1428676_PM_at) differential expression,"Striatum, 12 hr",1.68
same,FC Golga3 (1449616_PM_s_at),"striatum, 100MMF-vs-Veh, 2 h",−1.63
same,FC Grin2a (1421616_PM_at),"striatum, 100MMF-vs-Veh, 2 h",−1.78
same,FC Kdm3b (1428320_PM_at),"striatum, 100MMF-vs-Veh, 2 h",−1.56
same,FC Lrrc41 (1427125_PM_s_at),"striatum, 100MMF-vs-Veh, 2 h",−1.54
same,FC Top2b (1448458_PM_at),"striatum, 100MMF-vs-Veh, 2 h",−1.56
same,FC probe 1442867_PM_at,"striatum, 100MMF-vs-Veh, 2 h",−1.57
same,FC Aox1 (1419435_PM_at),"striatum, 100MMF-vs-Veh, 7 h",1.95
same,FC Adamts9 (1437785_PM_at),"striatum, 100MMF-vs-Veh, 12 h",−2.58
same,FC Galnt12 (1437760_PM_at),"striatum, 100MMF-vs-Veh, 12 h",1.50
same,FC Hrh3 (1448807_PM_at),"striatum, 100MMF-vs-Veh, 12 h",1.59
same,FC Itpkb (1435272_PM_at),"striatum, 100MMF-vs-Veh, 12 h",−1.56
same,FC Pvrl3 (1457257_PM_x_at),"striatum, 100MMF-vs-Veh, 12 h",−1.80
same,FC St18 (1455123_PM_at),"striatum, 100MMF-vs-Veh, 12 h",−1.69
same,FC Tmprss6 (1428676_PM_at),"striatum, 100MMF-vs-Veh, 12 h",1.68
same,Gna13 mRNA fold change vs vehicle,[4],−1.63
same,Golga3 mRNA fold change vs vehicle,[4],−1.63
same,Grin2a mRNA fold change vs vehicle,[4],−1.78
same,Kdm3b mRNA fold change vs vehicle,[4],−1.56
same,Lrrc41 mRNA fold change vs vehicle,[4],−1.54
same,Top2b mRNA fold change vs vehicle,[4],−1.56
same,Aox1 mRNA fold change vs vehicle,"striatum, 7 hr after single 100 mg/kg oral dose",1.95
same,Adamts9 mRNA fold change vs vehicle,[5],−2.58
same,Galnt12 mRNA fold change vs vehicle,[5],1.50
same,Hrh3 mRNA fold change vs vehicle,[5],1.59
same,Itpkb mRNA fold change vs vehicle,[5],−1.56
same,Pvrl3 mRNA fold change vs vehicle,[5],−1.80
same,St18 mRNA fold change vs vehicle,[5],−1.69
same,Tmprss6 mRNA fold change vs vehicle,[5],1.68
